Source: patent US20140100248A1, “Novel Heterocyclic Compounds as Modulators of Sphingolipid Signaling and Uses Thereof” (UNIVERSITÄT BERN, priority 2011, published 2014)

What was measured:
[1] = system: breast cancer cell lines (MCF-7, MDA-MB-231 and Sk-Br-3) and colon cancer cell lines (HCT-116 and SW620); details: cited from earlier work; for growth inhibition: Nagaoka et al. 2008, in the concentration tested
[2] = system: colon cancer cell line HCT-116; experiment: colony formation assay; type: cell-based, human; details: HCT-116, 10 days of treatment
Procedure: Cells were seeded at a density of 700 cells per 60 mm-diameter dish in growth medium. After 24 h, cells were treated with either vehicle (Co) or the indicated concentrations (in μM) of FTY720, myriocin (myrio), ST-968, and ST-1071, and further cultured for 10 days at 37° C. Thereafter, colonies were stained and quantified as described in the Methods Section. […] Rat renal mesangial cells were isolated, characterized, and cultured as previously described (Pfeilschifter et al., 1984). For the experiments performed in this study, cells between passages 8-30 were used. The human endothelial cell line EA.hy 926 was cultured in RPMI medium containing 10% (v/v) fetal bovine serum, 10 mM Hepes, pH 7.4, 100 units/ml penicillin, and 100 μg/ml streptomycin. HCT-116 colon carcinoma cells were cultured in McCoy medium including 10% (v/v) fetal bovine serum, 100 units/ml penicillin, and 100 μg/ml streptomycin. Prior to stimulation, all cells were rendered quiescent for 24 h in DMEM including 0.1 mg/ml of fatty acid-free bovine serum albumin (BSA). Cells were subcultured in 60 mm-diameter dishes at a density of 700 cells per dish. After 24 h, cells were treated with the indicated concentrations of the different compounds in growth medium and incubated for further 10 days to allow colony formation. Cells were then washed with PBS, air dried, and stained for 30 min with 2% (w/v) crystal violet, washed with water and air dried again. The number of colonies was quantified using a ColCount™ (Mammalian Cell Colony Counter, Oxford Optronix, Oxford, U.K.). Only colonies containing more than 50 cells were evaluated.

MCF-7 cells = details: Nagaoka et al. 2008; cited from earlier work
[3] = system: p42/44-MAPK phosphorylation in EA.hy 926 cells; experiment: MAPK/ERK phosphorylation in the endothelial cell line EA.hy 926, Western blot; type: cell-based, human; details: 1 μM
Procedure: Confluent EA.hy 926 cells were treated either for 10 min (left side) or for 4 h (right side) with either vehicle (Co), S1P (1 μM), or ST-968 (1 μM). Thereafter, cell lysates containing 30 μg of protein were separated by SDS-PAGE, transferred to nitrocellulose and subjected to Western blot analysis using antibodies against phospho-ERK½ (dilution of 1:1000; A, upper panel), and total p42/ERK2 and p44/ERK1(dilutions each 1:6000; B, lower panel). Blots were stained by the ECL method according to the manufacturer's recommendation. Bands corresponding to the phospho-ERKs were densitometrically evaluated and results are depicted as % of control and are means ±S.D. ([…]).
(§1) Rat renal mesangial cells were isolated, characterized, and cultured as previously described (Pfeilschifter et al., 1984). For the experiments performed in this study, cells between passages 8-30 were used. The human endothelial cell line EA.hy 926 was cultured in RPMI medium containing 10% (v/v) fetal bovine serum, 10 mM Hepes, pH 7.4, 100 units/ml penicillin, and 100 μg/ml streptomycin. HCT-116 colon carcinoma cells were cultured in McCoy medium including 10% (v/v) fetal bovine serum, 100 units/ml penicillin, and 100 μg/ml streptomycin. Prior to stimulation, all cells were rendered quiescent for 24 h in DMEM including 0.1 mg/ml of fatty acid-free bovine serum albumin (BSA).
Confluent mesangial cells were stimulated as indicated in the figure legends in Dulbecco's modified Eagle medium (DMEM) supplemented with 0.1 mg/ml of fatty acid-free bovine serum albumin and 10 mM HEPES. After stimulation, the supernatant was taken for PGE2 or NO quantification and for detection of secreted IIA-sPLA2. The cell monolayers were homogenized in lysis buffer and processed exactly as previously described (Huwiler et al., 2006). Cell lysates were taken for protein determination. […] Bands were detected by enhanced chemiluminescence method as recommended by the manufacturer.

[4] = system: p42/44-MAPK phosphorylation in renal mesangial cells; experiment: MAPK/ERK (p42/44) phosphorylation in renal mesangial cells, Western blot; type: cell-based, rat; details: for agonistic potential on S1P receptors: concluded from MAPK/ERK activation and antagonist experiments; for p42/44 phosphorylation (p42/44-MAPK activity): rat renal mesangial cells, stimulation for 10 min; for effect on ST-968-induced p42/44 activation: pretreatment with pertussis toxin 100 ng/ml 16 h, or VPC23019 10 μM or W146 10 μM 30 min, then ST-968 1 μM 10 min
Procedure: (A+B): Confluent mesangial cells were pretreated for 16 h with pertussis toxin (100 ng/ml), or for 30 min with vehicle (−), VPC23019 (10 μM) and W146 (10 μM) prior to stimulation for 10 min with either vehicle (Co) or ST-968 (1 μM). (C): Cells were stimulated for 10 min with either vehicle (Co) or the indicated concentrations (in μM) of S1P and ST-1071. Thereafter, cell lysates containing 30 μg of protein were separated by SDS-PAGE, transferred to nitrocellulose and subjected to Western blot analysis using antibodies against phospho-p42/44 (dilution of 1:1000; A, upper panel) and total p42/ERK2 and p44/ERK1 (dilution 1:6000 each; B, lower panel). Blots were stained by the ECL method according to the manufacturer's recommendation. Bands corresponding to the phospho-p42/44 and total ERKs were densitometrically scanned and evaluated (B). Results in B are depicted as % of ST-968 stimulation and are means ±S.D. (n=3).
as §1
Confluent mesangial cells were stimulated as indicated in the figure legends in Dulbecco's modified Eagle medium (DMEM) supplemented with 0.1 mg/ml of fatty acid-free bovine serum albumin and 10 mM HEPES. After stimulation, the supernatant was taken for PGE2 or NO quantification and for detection of secreted IIA-sPLA2. The cell monolayers were homogenized in lysis buffer and processed exactly as previously described (Huwiler et al., 2006). Cell lysates were taken for protein determination. Lysates containing equal amounts of protein, were separated by sodium dodecylsulfate-polyacrylamide gel electrophoresis (SDS-PAGE), transferred to nitrocellulose membranes and subjected for Western blot analysis using antibodies as indicated in the figure legends. Bands were detected by enhanced chemiluminescence method as recommended by the manufacturer.

[5] = system: secretory phospholipase A2 (sPLA2) expression; experiment: cytokine-triggered secretory phospholipase A2 expression in renal mesangial cells, Western blot; type: cell-based, rat; details: IL-1β 1 nM plus forskolin 10 μM, 24 h, increasing doses of ST-968
Procedure: Cells were treated for 24 h with either vehicle (−, 0) or with interleukin 1 β (1 nM) plus forskolin (10 μM) (IL-1/Fk, +) in the absence (0) or presence of the indicated concentrations of ST-968. Thereafter, supernatants were collected and equal volumes were taken for protein precipitation using trichloroacetic acid. Equal aliquots were separated by SDS-PAGE, transferred to nitrocellulose and subjected to Western blot analysis using a monoclonal antibody against rat sPLA2 at a dilution of 1:60. Blots were stained by the ECL method according to the manufacturer's recommendation. Data are representative of two independent experiments giving similar results.
Confluent mesangial cells were stimulated as indicated in the figure legends in Dulbecco's modified Eagle medium (DMEM) supplemented with 0.1 mg/ml of fatty acid-free bovine serum albumin and 10 mM HEPES. After stimulation, the supernatant was taken for PGE2 or NO quantification and for detection of secreted IIA-sPLA2. The cell monolayers were homogenized in lysis buffer and processed exactly as previously described (Huwiler et al., 2006). Cell lysates were taken for protein determination. […] Bands were detected by enhanced chemiluminescence method as recommended by the manufacturer. […]

EA.hy 926 cells = experiment: serum-stimulated migration of endothelial cells, adapted Boyden chamber assay; type: cell-based, human; details: 10% serum, 6 h, at 3 μM and 10 μM
Procedure: Serum-starved EA. by 926 cells in 8 μM-polycarbonate inserts were treated for 6 h with 10% serum in the absence or presence of the indicated concentrations of ST-968 or ST-1071. Migrated cells were stained with DAPI and counted in a fluorescence microscop.
EA.hy 926 cells were cultured for 24 h under serum-free conditions. Chemotaxis was measured in Cell Culture Inserts (polycarbonate-coated membranes, […] pore size). The lower compartment was filled with serum-free DMEM and 1.7×10^5 cells were seeded per insert in the absence or presence of the indicated stimuli and inhibitors. After the indicated time periods, non-migrated cells were mechanically removed from the membrane and cells that had migrated into the membrane were fixed in 4% paraformaldehyde in PBS and stained with lug/ml of 4′,6-diamidino-2-phenylindole (DAPI). DAPI-stained cells were counted using a fluorescence microscope. Each data point is the average number of cells in five random fields and is the mean of four individual wells.

[6] = system: nitric oxide (NO) formation; experiment: cytokine-triggered nitric oxide release from renal mesangial cells, Griess reagent; type: cell-based, rat; details: IL-1β 1 nM plus forskolin 10 μM, 24 h
Procedure: Cells were treated for 24 h with either vehicle (−) or with interleukin 1 β (1 nM) plus forskolin (10 μM) (IL-1/Fk, +) in the absence or presence of the indicated concentrations of ST-968 (in μM), or betamethasone (in nM). Thereafter, supernatants were collected and nitrite was quantified by using the Griess reagent.
Quiescent mesangial cells in 24-well plates were stimulated as indicated, and the supernatants were taken for nitrite determination using Griess reagent as described (Green et al., 1982).

CCCCCCCCc1ccc(CCC(N)(CO)CO)cc1.Cl [FTY720, 2-Amino-2[2-(4-octylphenyl)ethyl]propane-1,3-diol, reference compound]
growth inhibition [1]: significant growth inhibition | colony formation [2]: completely abolished colony formation

CCCCCCCCc1ccc(CC[C@](N)(CO)COP(=O)(O)O)cc1 [FTY720-P, FTY720-1-phosphate]
growth inhibition [1]: did not inhibit the growth | growth of MCF-7 cells (MCF-7 cells): slightly induced the growth

CCCCCCCCCCCCC/C=C/[C@@H](O)[C@@H](N)COP(=O)(O)O [S1P, sphingosine-1-phosphate]
growth inhibition [1]: did not inhibit the growth | p42/44 phosphorylation, S1P compared with ST-968 ([3]; 10 min of stimulation): more potent to increase p42/44 phosphorylation than ST-968 | growth of MCF-7 cells (MCF-7 cells): slightly induced the growth

CCCCCCCCc1ccc(CCC23COCN2COC3)cc1 [ST-968, 7a-(4-Octylphenethyl)Tetrahydro-1H-Oxazolo[3,4-c]Oxazole]
agonistic potential on S1P receptors [4]: have agonistic potential on one or several of the S1P receptors | agonistic potential on S1P receptors ([4]; listed as ST 968): exhibited agonistic potential for one or several of the S1P receptor subtypes | p42/44 phosphorylation (p42/44-MAPK activity) [4]: increased p42/44 phosphorylation | colony formation [2]: strongly reduced colony formation | colony formation ([2]; listed as ST 968): inhibited and/or reduced the colony formation | sPLA2 expression [5]: reduced | activation of the p42/44-MAPK cascade [3]: could activate the p42/44-MAPK cascade | p42/44 phosphorylation, ST-968 compared with S1P ([3]; 4 h of stimulation): more potently increasing p42/44 phosphorylation than S1P | serum-stimulated migration (EA.hy 926 cells): able to reduce serum-stimulated migration | IL-1β/forskolin induced NO formation [6]: dose-dependently reduced

CCCCCCCOc1ccc(CCC23COCN2COC3)cc1 [ST-1071, 7a-(4-(Heptyloxy)Phenethyl)Tetrahydro-1H-Oxazolo[3,4-c]Oxazole]
agonistic potential on S1P receptors [4]: have agonistic potential on one or several of the S1P receptors | agonistic potential on S1P receptors ([4]; listed as ST1071): exhibited agonistic potential for one or several of the S1P receptor subtypes | p42/44 phosphorylation (p42/44-MAPK activity) [4]: stimulated p42/44 phosphorylation after 10 min in a concentration-dependent manner | potency on p42/44 phosphorylation compared with S1P ([4]; renal mesangial cells, 10 min): less potent than S1P | colony formation [2]: strongly reduced colony formation | colony formation ([2]; listed as ST 1071): inhibited and/or reduced the colony formation | serum-stimulated migration (EA.hy 926 cells): able to reduce serum-stimulated migration

CCCCCCCCc1cccc(NC(=O)[C@H](N)COP(=O)(O)O)c1 [VPC23019, reference compound]
effect on ST-968-induced p42/44 activation [4]: completely abolished

CCCCCCc1cccc(NC(=O)[C@H](N)CCP(=O)(O)O)c1 [W146, (R)-3-amino-(3-hexylphenylamino)-4-oxobutylphosphonic acid, reference compound]
effect on ST-968-induced p42/44 activation [4]: had no effect

CCCCCCCCCCCCC/C=C/[C@@H](O)[C@H](CO)N(C)C [dimethylsphingosine]
effect of the combination on the inhibitory effect of FTY720 ([1]; combined with FTY720, Nagaoka et al. 2008): augmented the inhibitory effect of FTY720

CCCCCCC(=O)CCCCCC/C=C/C[C@@H](O)[C@H](O)[C@@](N)(CO)C(=O)O [myriocin, reference compound]
colony formation [2]: had no effect

CCCCCCCCCCCCC/C=C/[C@@H](O)[C@@H](N)CO [sphingosine]
growth inhibition [1]: significant growth inhibition

pertussis toxin [reference compound]
effect on ST-968-induced p42/44 activation [4]: only partially blocked
